Results from PubChem BioAssay (NCI).
Values after ≈ are worked out from the molar mass of the structure shown.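 48-hour exposure; five concentrations; linearly interpolated endpoints. GI50 is the concentration that inhibits growth by half. TGI denotes the concentration required for complete inhibition of growth.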

What was measured:
Assay in all cases: NCI tumour cell line growth inhibition, 48 h
LXFL 529 NSCLC = system: LXFL 529 NSCLC
MDA-MB-231 breast = system: MDA-MB-231 breast
P388 leukemia = system: P388 leukemia
SN12K1 renal = system: SN12K1 renal
HOP-18 NSCLC = system: HOP-18 NSCLC
P388/ADR leukemia = system: P388/ADR leukemia

SMILES	TGI (LXFL 529 NSCLC) [µM]	TGI (P388 leukemia) [µM]	TGI (SN12K1 renal) [µM]	TGI (HOP-18 NSCLC) [µM]	TGI (P388/ADR leukemia) [µM]	other results
NCCCCNCCCNC(=O)c1nc(-c2csc(CCN)n2)sc1Cl	45.6	–	–	–	–	–
COc1cc(/C=C2/N=C(c3ccccc3)N(C3=NNC4(C(=O)N3)c3ccccc3-c3ccccc34)NC2=O)ccc1O	–	–	–	–	–	GI50 (MDA-MB-231 breast): 19.3 µg/mL (≈ 34.6 µM); TGI (MDA-MB-231 breast): 44.5 µg/mL (≈ 80 µM)
C#CCn1c(=O)c(C#N)c(O)c2cc3ccccc3nc21	–	> 100	> 100	> 100	> 100	–
CC1(Cl)CC2C(CC1Sc1nnnn1-c1ccccc1)C2(C)C (configuration not stated)	> 100	–	–	–	–	–
CC(=O)Oc1ccc(C2COc3cc(OC(C)=O)c(OC(C)=O)cc3C2)cc1 (configuration not stated)	–	37.1	35.9	46.8	> 53.6	–
